US20260000728A1, “PEPTIDE HAVING ACE INHIBITORY ACTIVITY AND COMPOSITION CONTAINING THE SAME” (Vedan International (Holdings) Limited, priority 2024, published 2026)

Tested on: Spontaneously hypertensive rats (SHR)
Test: Animal Test (2): 8-week feeding, weekly blood pressure in SHR
Format: in vivo, rat
Details: PC group, 1 mg/kg
Description: Six-week-old spontaneously hypertensive rats (SHR) were divided into 5 groups, each receiving the corresponding treatment stated below: • Negative control group (NC group): feeding with water • Positive control group (PC group): feeding with hypertension drug Captopril at 1 mg/kg • Low-dose group (L group): feeding with the peptide composition disclosed herein at a dose of 50 mg/kg • Medium-dose group (M group): feeding with the peptide composition disclosed herein at a dose of 100 mg/kg • High-dose group (H group): feeding with the peptide composition disclosed herein at a dose of 200 mg/kg
The experiment lasted for a total of 8 weeks.

## C[C@H](CS)C(=O)N1CCC[C@H]1C(=O)O [Captopril]
Week 0
  Diastolic blood pressure: 80.2 ± 6.5 mmHg
  Systolic blood pressure: 111.0 ± 7.2 mmHg
Week 1
  Diastolic blood pressure: 79.9 ± 6.3 mmHg
  Systolic blood pressure: 110.2 ± 5.8 mmHg
Week 2
  Diastolic blood pressure: 79.0 ± 5.3 mmHg
  Systolic blood pressure: 108.8 ± 4.2 mmHg
Week 3
  Diastolic blood pressure: 78.9 ± 6.4 mmHg
  Systolic blood pressure: 108.6 ± 4.3 mmHg
Week 4
  Diastolic blood pressure: 78.9 ± 3.9 mmHg
  Systolic blood pressure: 108.4 ± 3.9 mmHg
Week 5
  Diastolic blood pressure: 78.8 ± 3.8 mmHg
  Systolic blood pressure: 108.1 ± 4.1 mmHg
Week 6
  Diastolic blood pressure: 78.8 ± 3.2 mmHg
  Systolic blood pressure: 108.1 ± 2.0 mmHg
Week 7
  Diastolic blood pressure: 78.8 ± 5.0 mmHg
  Systolic blood pressure: 108.0 ± 3.1 mmHg
Week 8
  Diastolic blood pressure: 78.8 ± 2.9 mmHg
  Systolic blood pressure: 108.0 ± 2.5 mmHg
